The source made the active and inactive calls. The calls are words filed in the database; no cut-off is given here.
Assays:
[1] = target: T1, NAD-dependent protein deacetylase sirtuin-1 (Homo sapiens) (UniProt Q96EB6); assay: (§1) Binding affinity to SIRT1 (unknown origin) by surface plasmon resonance assay; details: filed as activator
T1 sequence (whole entry): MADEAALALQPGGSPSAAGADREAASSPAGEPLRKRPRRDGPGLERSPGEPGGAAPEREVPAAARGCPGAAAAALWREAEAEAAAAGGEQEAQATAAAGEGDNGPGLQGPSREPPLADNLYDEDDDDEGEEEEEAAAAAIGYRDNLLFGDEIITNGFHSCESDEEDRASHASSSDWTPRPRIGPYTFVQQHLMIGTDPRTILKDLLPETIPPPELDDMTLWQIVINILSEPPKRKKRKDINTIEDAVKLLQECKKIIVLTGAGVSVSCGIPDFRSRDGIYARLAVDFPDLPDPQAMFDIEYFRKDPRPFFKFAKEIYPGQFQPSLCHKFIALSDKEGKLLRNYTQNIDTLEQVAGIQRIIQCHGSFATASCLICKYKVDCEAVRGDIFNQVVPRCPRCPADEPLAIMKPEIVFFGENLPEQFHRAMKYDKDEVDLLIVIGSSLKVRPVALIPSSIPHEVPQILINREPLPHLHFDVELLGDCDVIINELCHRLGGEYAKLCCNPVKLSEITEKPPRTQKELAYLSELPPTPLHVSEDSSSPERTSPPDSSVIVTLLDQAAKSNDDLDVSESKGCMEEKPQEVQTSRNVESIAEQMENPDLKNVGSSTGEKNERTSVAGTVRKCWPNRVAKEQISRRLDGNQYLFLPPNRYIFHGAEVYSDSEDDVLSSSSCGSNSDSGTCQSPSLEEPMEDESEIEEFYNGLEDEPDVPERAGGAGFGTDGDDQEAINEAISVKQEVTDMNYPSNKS

[2] = target: T2, NAD-dependent protein deacetylase sirtuin-1 (Homo sapiens, UniProt Q96EB6); assay: as §1
T2 sequence (Q96EB6 whole entry): T1 sequence (whole entry)

[3] = target: T3, Peroxisome proliferator-activated receptor gamma coactivator 1-alpha (Homo sapiens) (UniProt Q9UBK2); assay: (§2) Binding affinity to PGC1alpha (unknown origin) by surface plasmon resonance assay; details: filed as activator
T3 sequence (whole entry): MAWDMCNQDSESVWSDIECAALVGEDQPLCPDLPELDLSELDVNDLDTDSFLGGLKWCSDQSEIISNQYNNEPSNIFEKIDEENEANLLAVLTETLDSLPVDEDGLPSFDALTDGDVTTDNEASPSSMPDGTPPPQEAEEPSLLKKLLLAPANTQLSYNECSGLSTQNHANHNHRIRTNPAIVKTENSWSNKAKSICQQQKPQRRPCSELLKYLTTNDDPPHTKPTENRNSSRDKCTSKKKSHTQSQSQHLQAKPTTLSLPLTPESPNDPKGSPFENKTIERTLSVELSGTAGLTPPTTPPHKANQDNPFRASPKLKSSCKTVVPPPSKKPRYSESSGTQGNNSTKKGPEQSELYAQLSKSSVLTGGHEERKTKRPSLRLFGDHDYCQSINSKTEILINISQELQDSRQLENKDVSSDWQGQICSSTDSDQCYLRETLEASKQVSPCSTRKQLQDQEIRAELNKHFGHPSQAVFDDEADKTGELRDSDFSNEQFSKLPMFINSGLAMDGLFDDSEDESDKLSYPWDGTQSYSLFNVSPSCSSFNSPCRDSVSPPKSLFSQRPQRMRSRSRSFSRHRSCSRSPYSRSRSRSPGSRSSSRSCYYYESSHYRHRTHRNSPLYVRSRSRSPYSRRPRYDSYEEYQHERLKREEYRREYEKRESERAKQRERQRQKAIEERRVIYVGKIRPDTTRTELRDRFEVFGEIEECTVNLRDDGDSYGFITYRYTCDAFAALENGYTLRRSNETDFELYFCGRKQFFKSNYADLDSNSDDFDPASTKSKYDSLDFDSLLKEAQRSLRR

[4] = target: T4, Peroxisome proliferator-activated receptor gamma coactivator 1-alpha (Homo sapiens, UniProt Q9UBK2); assay: as §2
T4 sequence (Q9UBK2 whole entry): T3 sequence (whole entry)

[5] = target: T3, Peroxisome proliferator-activated receptor gamma coactivator 1-alpha (Homo sapiens); assay: Binding affinity to PGC1alpha in human HepG2 cells assessed as increase in protein abundance at 80 to 320 uM pretreated with compound for 30 mins followed by proteolysis for 15 mins by DARTS assay; type: cell-based; details: filed as activator, dose 80-320 µM, time 45.0 min
[6] = target: T1, NAD-dependent protein deacetylase sirtuin-1 (Homo sapiens); assay: Binding affinity to SIRT1 in human HepG2 cells assessed as increase in thermal stability of protein pretreated with compound for 30 mins followed by incubation at 50 degC for 3 mins by CETSA-WB analysis; type: cell-based; details: filed as activator, dose 80-320 µM, time 33.0 min
[7] = test system: HepG2; assay: Recovery of mitochondrial biogenesis in 40% FBS-induced steatosis human HepG2 cells model assessed as increase in PGC1alpha protein expression incubated for 24 hrs by western blot analysis; type: functional, cell-based; details: dose 0.2-5 µM
[8] = test system: HepG2; assay: Recovery of mitochondrial biogenesis in 40% FBS-induced steatosis human HepG2 cells model assessed as increase in mitochondrial COX1 protein expression incubated for 24 hrs by western blot analysis; type: functional, cell-based; details: dose 0.2-5 µM
[9] = test system: HepG2; assay: Recovery of mitochondrial biogenesis in 40% FBS-induced steatosis human HepG2 cells model assessed as increase in NRF1 mRNA expression incubated for 24 hrs by qRT-PCR analysis; type: functional, cell-based; details: dose 0.2-5 µM
[10] = test system: HepG2; assay: Inhibition of oxidative stress in 40% FBS-induced steatosis human HepG2 cells model assessed as reduction in mitochondrial ROS production incubated with compound for 24 hrs followed by replacement with steatosis inducing DMEM with 40% FBS medium by MitoSOX Red dye based fluorescence microscopy; type: functional, cell-based; details: Mitochondria, dose 0.2-5 µM
[11] = test system: HepG2; assay: Inhibition of mitochondrial membrane potential dissipation in 40% FBS-induced steatosis human HepG2 cells model assessed as increase in mitochondrial membrane potential incubated with compound for 24 hrs followed by replacement with steatosis inducing DMEM with 40% FBS medium by JC-1 staining based fluorescence microscopy; type: functional, cell-based; details: Mitochondria, dose 0.2-5 µM
[12] = test system: HepG2; assay: Inhibition of lipid toxicity in 40% FBS-induced steatosis human HepG2 cells model assessed as decrease in lipid accumulation at 0.2 to 5 uM incubated in steatosis inducing DMEM with 40% FBS medium for 24 hrs followed by compound treatment by Oil red O staining based analysis; type: functional, cell-based; details: dose 0.2-5 µM
[13] = test system: HepG2; assay: Inhibition of lipid toxicity in 40% FBS-induced steatosis human HepG2 cells model assessed as decrease in lipid accumulation at 0.2 to 5 uM incubated with compound for 24 hrs followed by replacement with steatosis inducing DMEM with 40% FBS medium by Oil red O staining based analysis; type: functional, cell-based; details: dose 0.2-5 µM
[14] = test system: HepG2; assay: Inhibition of liver injury in 40% FBS-induced steatosis human HepG2 cells model assessed as increase in liver protection index by measuring increase in GSH level at 0.2 to 5 uM incubated in steatosis inducing DMEM with 40% FBS medium for 24 hrs followed by compound treatment; type: functional, cell-based; details: dose 0.2-5 µM
[15] = test system: Rattus norvegicus; assay: Hepatoprotective activity against high fat diet-fed NAFLD Sprague-Dawley rat model assessed as decrease in serum ALT level administered intragastrically via gavage for 4 weeks; type: functional, organism-based; details: dose 12.3-61.4 mg/kg, route ig
[16] = test system: Rattus norvegicus; assay: Hepatoprotective activity against high fat diet-fed NAFLD Sprague-Dawley rat model assessed as increase in serum GSH level administered intragastrically via gavage for 4 weeks; type: functional, organism-based; details: dose 12.3-61.4 mg/kg, route ig
[17] = test system: HepG2; assay: Induction of mitochondrial biogenesis in human HepG2 cells assessed as mitochondrial ND6 protein expression incubated for 24 hrs in presence of SIRT1 inhibitor, EX527 by western blot analysis; type: functional, cell-based

Activity [1]: Dose-Dependent Effect
Kd [2]: 77.3 µM
Activity [3]: Dose-Dependent Effect
Kd [4]: 172 µM
Activity [5]: Active
Activity [6]: Dose-Dependent Effect
Compound: CC(C)(C)c1ccc(C(=O)c2ccc(O)c(O)c2)cc1
Activity [7]: Dose-Dependent Effect
Activity [8]: Dose-Dependent Effect
Activity [9]: Dose-Dependent Effect
inhibition [10]: Dose-Dependent Effect
inhibition [11]: Dose-Dependent Effect
inhibition [12]: Active
inhibition [13]: Active
inhibition [14]: Active
Activity [15]: Active
Activity [16]: Active
Activity [17]: inactive
